Data on ten molecules can be found in US7659263B2, “Thienopyrrole compound and use thereof as HCV polymerase inhibitor” (Japan Tobacco Inc., priority 2004, dated 2010).

Where a name gives a salt, the structure may show the parent alone.

For one experiment, the target named is T1, NS5B 1a (Hepatitis C virus genotype 1a, UniProt P27958).
T1 construct: NS5B 1a
The experiment in a line: Assay of enzyme (HCV polymerase) inhibitory activity, NS5B 1a. The experiment is classed as biochemical. The following applies: HCV polymerase NS5B 1a; [3H]UTP incorporation, 25° C., 90 min.

In a further experiment the target is T2, NS5B 1b (Hepatitis C virus genotype 1b, UniProt P26663).
T2 construct: a region encoding NS5B (J Virol 1991 March, 65(3), 1105-13, 544 amino acids after deletion of 47 amino acids on the C-terminal); 6 His (C); made in house; host or cells: Escherichia coli
The experiment can be described thus: Assay of enzyme (HCV polymerase) inhibitory activity, NS5B 1b. The experiment is classed as biochemical. The text has this:
The evaluation of the HCV polymerase inhibitory activity of the compound of the present invention is explained in the following. This polymerase is an enzyme coded for by the non-structural protein region called NS5B on the genome RNA of HCV (EMBO J., 15:12-22, 1996).
i) Preparation of enzyme (HCV polymerase)
Using, as a template, a cDNA clone corresponding to the full length genome RNA of HCV BK strain obtained from the blood of a patient with hepatitis C, a region encoding NS5B (J Virol 1991 March, 65(3), 1105-13, 544 amino acids after deletion of 47 amino acids on the C-terminal) was amplified by PCR. The objective gene was prepared by adding a 6 His tag {base pair encoding 6 continuous histidine (His)} to the 3′ end thereof and transformed to Escherichia coli. The Escherichia coli capable of producing the objective protein was cultured. The obtained cells were suspended in a buffer solution and crushed in a microfluidizer. The supernatant was obtained by centrifugation and applied to various column chromatographys {mono-S, Sephacryl S-200 (Pharmacia)}, inclusive of metal chelate chromatography, to give a standard enzyme product.
ii) Synthesis of Substrate RNA
Using a synthetic primer designed based on the sequence of HCV genomic 3′ untranslated region, a DNA fragment (148 bp) containing polyU and 3′X sequence was entirely synthesized and cloned into plasmid pBluescript SK II(+) (Stratagene). The cDNA encoding full length NS5B, which was prepared in i) above, was digested with restriction enzyme KpnI to give a cDNA fragment containing the nucleotide sequence of from the restriction enzyme cleavage site to the termination codon. This cDNA fragment was inserted into the upstream of 3′ untranslated region of the DNA in pBluescript SK II(+) and ligated. The about 450 bp inserted DNA sequence was used as a template in the preparation of substrate RNA. This plasmid was cleaved immediately after the 3′X sequence, linearized and purified by phenol-chloroform treatment and ethanol precipitation to give DNA.
RNA was synthesized (37° C., 3 hr) by run-off method using this purified DNA as a template, a promoter of pBluescript SK II(+), MEGAscript RNA synthesis kit (Ambion) and T7 RNA polymerase. DNase I was added and the mixture was incubated for 1 hr. The template DNA was removed by decomposition to give a crude RNA product. This crude product was treated with phenol-chloroform and purified by ethanol precipitation to give the objective substrate RNA.
This RNA was applied to formaldehyde denaturation agarose gel electrophoresis to confirm the quality thereof and preserved at −80° C. iii) Assay of enzyme (HCV polymerase) inhibitory activity A test substance (compound of the present invention) and a reaction mixture (30 μl) having the following composition were reacted at 25° C. for 90 min.
10% Trichloroacetic acid at 4° C. and 1% sodium pyrophosphate solution (150 μl) were added to this reaction mixture to stop the reaction. The reaction mixture was left standing in ice for 15 min to insolubilize RNA. This RNA was trapped on a glass filter (Whatman GF/C and the like) upon filtration by suction. This filter was washed with a solution containing 1% trichloroacetic acid and 0.1% sodium pyrophosphate, washed with 90% ethanol and dried. A liquid scintillation cocktail (Packard) was added and the radioactivity of RNA synthesized by the enzyme reaction was measured on a liquid scintillation counter.
The HCV polymerase inhibitory activity (IC50) of the compound of the present invention was calculated from the values of radioactivity of the enzyme reaction with and without the 20 test substance. […]

T1 sequence (P27958 2421-3011): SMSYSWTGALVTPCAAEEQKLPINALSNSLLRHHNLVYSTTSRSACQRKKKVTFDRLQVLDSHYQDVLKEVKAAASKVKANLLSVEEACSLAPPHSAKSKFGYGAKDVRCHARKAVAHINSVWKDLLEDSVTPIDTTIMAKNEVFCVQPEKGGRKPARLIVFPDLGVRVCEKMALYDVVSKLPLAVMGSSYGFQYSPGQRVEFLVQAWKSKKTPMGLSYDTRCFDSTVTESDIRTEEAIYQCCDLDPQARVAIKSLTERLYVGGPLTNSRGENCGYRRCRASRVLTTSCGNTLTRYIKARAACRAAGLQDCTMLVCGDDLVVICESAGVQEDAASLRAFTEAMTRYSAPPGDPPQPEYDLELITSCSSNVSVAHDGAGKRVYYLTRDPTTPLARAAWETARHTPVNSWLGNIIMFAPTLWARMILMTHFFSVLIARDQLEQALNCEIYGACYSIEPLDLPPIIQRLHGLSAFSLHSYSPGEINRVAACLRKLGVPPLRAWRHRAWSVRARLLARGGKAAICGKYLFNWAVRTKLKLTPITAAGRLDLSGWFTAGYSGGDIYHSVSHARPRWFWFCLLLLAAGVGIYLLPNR
T2 sequence (P26663 2420-2963): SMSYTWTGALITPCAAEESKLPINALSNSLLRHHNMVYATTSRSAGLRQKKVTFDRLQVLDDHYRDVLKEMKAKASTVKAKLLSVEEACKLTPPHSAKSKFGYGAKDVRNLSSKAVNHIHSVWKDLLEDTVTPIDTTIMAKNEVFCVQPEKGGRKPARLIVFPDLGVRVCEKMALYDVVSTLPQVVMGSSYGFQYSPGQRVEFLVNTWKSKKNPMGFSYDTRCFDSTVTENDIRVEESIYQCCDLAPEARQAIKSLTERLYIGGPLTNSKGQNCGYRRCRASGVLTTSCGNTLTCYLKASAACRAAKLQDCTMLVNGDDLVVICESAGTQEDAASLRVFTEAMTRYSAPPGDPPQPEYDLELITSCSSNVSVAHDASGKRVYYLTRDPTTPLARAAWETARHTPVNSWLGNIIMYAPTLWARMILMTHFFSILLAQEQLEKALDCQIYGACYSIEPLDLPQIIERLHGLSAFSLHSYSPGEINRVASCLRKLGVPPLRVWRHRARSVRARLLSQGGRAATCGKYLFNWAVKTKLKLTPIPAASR

A word on the IC50: it is the concentration at which inhibition is half-maximal. The low end stands for higher potency, the high end for lower potency. On to `CS(=O)(=O)c1ccc(N2CCOCC2)c(COc2ccc3c(c2)OCCn2c-3c(C3CCCCC3)c3sc(C(=O)O)cc32)c1` [Example 3, 11-cyclohexyl-8-[5-methanesulfonyl-2-(morpholin-4-yl)benzyloxy]-4,5-dihydro-6-oxa-1-thia-3b-azabenzo[e]cyclopenta[a]azulene-2-carboxylic acid], for which the concentration for half-maximal inhibition (IC50) was 10 to 100 nM on NS5B 1a and under 10 nM at NS5B 1b.
Taken in the same sequence, the figures for `CS(=O)(=O)c1ccc(N2CCOCC2)c(COc2ccc3c(c2)OCCn2c-3c(C3CCCCC3)c3sc(C(N)=O)cc32)c1` [Example 4, 11-cyclohexyl-8-[5-methanesulfonyl-2-(morpholin-4-yl)benzyloxy]-4,5-dihydro-6-oxa-1-thia-3b-azabenzo[e]cyclopenta[a]azulene-2-carboxamide] were 10 to 100 nM and under 10 nM.
Taken in the same sequence, the figures for `O=C(O)c1cc2c(s1)c(C1CCCCC1)c1n2CCN(CCN2CCCCC2)c2ccccc2-1` [Example 8, 11-cyclohexyl-6-[2-(piperidin-1-yl)ethyl]-5,6-dihydro-4H-1-thia-3b,6-diazabenzo[e]cyclopenta[a]azulene-2-carboxylic acid dihydrochloride] were 10 to 100 nM and 10 to 100 nM.
Taken in the same sequence, the figures for `CC(C)(C)OC(=O)N1CCN(CCN2CCn3c(c(C4CCCCC4)c4sc(C(=O)O)cc43)-c3ccccc32)CC1` [Example 11, 6-[2-(4-tert-butoxycarbonylpiperazin-1-yl)ethyl]-11-cyclohexyl-5,6-dihydro-4H-1-thia-3b,6-diazabenzo[e]cyclopenta[a]azulene-2-carboxylic acid hydrochloride] were 10 to 100 nM and 10 to 100 nM.
`CCN1CCN(C(=O)CN2CCn3c(c(C4CCCCC4)c4sc(C(=O)O)cc43)-c3ccccc32)CC1` [Example 14, 11-cyclohexyl-6-[2-(4-ethylpiperazin-1-yl)-2-oxoethyl]-5,6-dihydro-4H-1-thia-3b,6-diazabenzo[e]cyclopenta[a]azulene-2-carboxylic acid dihydrochloride]: the IC50 on NS5B 1a and on NS5B 1b was 10 to 100 nM each time.
For the molecule `O=C(O)c1cc2c(s1)c(C1CCCCC1)c1n2CCOc2ccccc2-1` [Example 15, 11-cyclohexyl-4,5-dihydro-6-oxa-1-thia-3b-azabenzo[e]cyclopenta[a]azulene-2-carboxylic acid], the IC50 against NS5B 1a was in the range of 100 to 1000 nM; on NS5B 1b, 10 to 100 nM.
On to `O=C(O)c1cc2c(s1)c(C1CCCCC1)c1n2CCOc2cc(OCc3cc(N4CCCC4=O)ccc3N3CCOCC3)ccc2-1` [Example 16, 11-cyclohexyl-8-[2-(morpholin-4-yl)-5-(2-oxopyrrolidin-1-yl)benzyloxy]-4,5-dihydro-6-oxa-1-thia-3b-azabenzo[e]cyclopenta[a]azulene-2-carboxylic acid hydrochloride], for which the figures for the IC50 against NS5B 1a and on NS5B 1b were 10 to 100 nM and under 10 nM, respectively.
Taken in the same sequence, the figures for `COC(=O)N1CCCC(Oc2ccc3c(c2)OCCn2c-3c(C3CCCCC3)c3sc(C(=O)O)cc32)C1` (centres unmarked) [Example 17, 11-cyclohexyl-8-(1-methoxycarbonylpiperidin-3-yloxy)-4,5-dihydro-6-oxa-1-thia-3b-azabenzo[e]cyclopenta[a]azulene-2-carboxylic acid] were 10 to 100 nM and 10 to 100 nM.
The like results for `CS(=O)(=O)N1CCN(c2ccc(N3CCCC3=O)cc2COc2ccc3c(c2)OCCn2c-3c(C3CCCCC3)c3sc(C(=O)O)cc32)CC1` [Example 18, 11-cyclohexyl-8-[2-(4-methanesulfonylpiperazin-1-yl)-5-(2-oxopyrrolidin-1-yl)benzyloxy]-4,5-dihydro-6-oxa-1-thia-3b-azabenzo[e]cyclopenta[a]azulene-2-carboxylic acid] were, in that order, under 10 nM and under 10 nM.
The like results for `Cc1ccc2c(c1)N(CCN1CCCCC1)CCn1c-2c(C2CCCCC2)c2sc(C(=O)O)cc21` [Example 19, 11-cyclohexyl-8-methyl-6-[2-(piperidin-1-yl)ethyl]-5,6-dihydro-4H-1-thia-3b,6-diazabenzo[e]cyclopenta[a]azulene-2-carboxylic acid dihydrochloride] were, in that order, 10 to 100 nM and under 10 nM.
